Legend:
FLT3-ITD = biological target: T1, FLT3-ITD (Homo sapiens, UniProt P36888); assay: FLT3-ITD biochemical kinase assay (AlphaScreen)
T1 construct: FLT3-ITD; Invitrogen #PV6190
T1 sequence (P36888 1-993): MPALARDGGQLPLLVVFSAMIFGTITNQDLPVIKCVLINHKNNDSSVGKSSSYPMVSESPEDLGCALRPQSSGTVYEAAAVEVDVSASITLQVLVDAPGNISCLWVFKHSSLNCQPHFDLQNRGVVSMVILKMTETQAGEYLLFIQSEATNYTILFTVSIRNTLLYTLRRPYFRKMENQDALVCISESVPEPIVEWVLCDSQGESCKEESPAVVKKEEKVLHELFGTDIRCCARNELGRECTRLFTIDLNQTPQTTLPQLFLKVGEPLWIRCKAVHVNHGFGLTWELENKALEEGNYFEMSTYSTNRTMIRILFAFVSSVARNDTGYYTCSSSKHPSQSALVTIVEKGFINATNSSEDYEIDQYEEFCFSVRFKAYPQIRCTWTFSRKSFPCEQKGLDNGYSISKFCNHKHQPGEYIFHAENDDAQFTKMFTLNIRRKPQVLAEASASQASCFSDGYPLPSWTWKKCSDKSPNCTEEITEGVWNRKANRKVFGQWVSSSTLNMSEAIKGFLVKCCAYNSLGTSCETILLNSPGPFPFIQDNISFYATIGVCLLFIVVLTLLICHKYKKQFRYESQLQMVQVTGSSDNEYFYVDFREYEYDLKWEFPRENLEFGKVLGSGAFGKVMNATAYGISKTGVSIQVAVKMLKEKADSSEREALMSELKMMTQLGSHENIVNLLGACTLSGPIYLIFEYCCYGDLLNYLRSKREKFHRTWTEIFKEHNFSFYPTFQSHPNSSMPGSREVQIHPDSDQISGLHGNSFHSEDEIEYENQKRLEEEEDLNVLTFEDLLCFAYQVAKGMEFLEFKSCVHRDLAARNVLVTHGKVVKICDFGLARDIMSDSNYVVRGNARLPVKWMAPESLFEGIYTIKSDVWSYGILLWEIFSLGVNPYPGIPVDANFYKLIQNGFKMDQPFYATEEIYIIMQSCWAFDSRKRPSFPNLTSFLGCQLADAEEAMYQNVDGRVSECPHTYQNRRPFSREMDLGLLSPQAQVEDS
Procedure, shortened: (§1)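 Recombinant kinase, biotin-GG(EEEEY)10EE 30 nM final, ATP 10 μM (D835Y) / 100 μM (ITD). Stop/detect: SA donor beads 20 min RT, then PY20 acceptor beads 60 min RT. AlphaScreen 580 nm signal; IC50.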

FLT3-D835Y = biological target: T2, FLT3-D835Y (Homo sapiens, UniProt P36888, D835Y); assay: FLT3-D835Y biochemical kinase assay (AlphaScreen)
T2 construct: purchased Invitrogen PV3967
T2 sequence (P36888 27-993 D835Y): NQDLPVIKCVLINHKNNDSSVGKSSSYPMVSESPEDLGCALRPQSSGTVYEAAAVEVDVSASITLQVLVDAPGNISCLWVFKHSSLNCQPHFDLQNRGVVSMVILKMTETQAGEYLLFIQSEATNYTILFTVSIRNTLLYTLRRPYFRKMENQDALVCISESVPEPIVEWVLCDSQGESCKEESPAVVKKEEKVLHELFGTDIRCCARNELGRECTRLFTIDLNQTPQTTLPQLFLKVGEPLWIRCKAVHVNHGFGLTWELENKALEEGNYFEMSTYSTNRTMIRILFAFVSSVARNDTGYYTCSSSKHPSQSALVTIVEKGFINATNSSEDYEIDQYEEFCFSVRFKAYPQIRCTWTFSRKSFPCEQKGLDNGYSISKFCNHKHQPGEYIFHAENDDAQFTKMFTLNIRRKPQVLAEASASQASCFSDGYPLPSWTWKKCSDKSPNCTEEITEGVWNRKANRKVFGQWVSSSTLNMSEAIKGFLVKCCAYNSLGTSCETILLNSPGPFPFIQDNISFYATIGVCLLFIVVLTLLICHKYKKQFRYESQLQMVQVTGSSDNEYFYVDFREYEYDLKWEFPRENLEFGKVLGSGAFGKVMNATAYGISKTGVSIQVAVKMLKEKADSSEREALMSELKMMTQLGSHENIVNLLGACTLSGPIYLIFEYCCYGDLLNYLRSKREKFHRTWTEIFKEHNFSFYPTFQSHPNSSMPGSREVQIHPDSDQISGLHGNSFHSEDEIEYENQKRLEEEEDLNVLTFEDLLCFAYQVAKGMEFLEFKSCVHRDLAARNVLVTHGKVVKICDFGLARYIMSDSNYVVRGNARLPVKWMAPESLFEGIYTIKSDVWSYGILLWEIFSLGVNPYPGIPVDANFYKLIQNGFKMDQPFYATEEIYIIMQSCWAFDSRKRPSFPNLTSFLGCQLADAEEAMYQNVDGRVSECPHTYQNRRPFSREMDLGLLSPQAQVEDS
Procedure, shortened: as §1

c-Kit = c-Kit (Homo sapiens, UniProt P10721); assay: c-Kit biochemical assay (per US 2007/0032519)
Procedure, shortened: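 Biochemical kinase inhibition run per US 2007/0032519; values reported as binned IC50 ranges (0.0001–1 μM, 1–10 μM, 10–200 μM).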

Chain of c-Kit (P10721 26-976): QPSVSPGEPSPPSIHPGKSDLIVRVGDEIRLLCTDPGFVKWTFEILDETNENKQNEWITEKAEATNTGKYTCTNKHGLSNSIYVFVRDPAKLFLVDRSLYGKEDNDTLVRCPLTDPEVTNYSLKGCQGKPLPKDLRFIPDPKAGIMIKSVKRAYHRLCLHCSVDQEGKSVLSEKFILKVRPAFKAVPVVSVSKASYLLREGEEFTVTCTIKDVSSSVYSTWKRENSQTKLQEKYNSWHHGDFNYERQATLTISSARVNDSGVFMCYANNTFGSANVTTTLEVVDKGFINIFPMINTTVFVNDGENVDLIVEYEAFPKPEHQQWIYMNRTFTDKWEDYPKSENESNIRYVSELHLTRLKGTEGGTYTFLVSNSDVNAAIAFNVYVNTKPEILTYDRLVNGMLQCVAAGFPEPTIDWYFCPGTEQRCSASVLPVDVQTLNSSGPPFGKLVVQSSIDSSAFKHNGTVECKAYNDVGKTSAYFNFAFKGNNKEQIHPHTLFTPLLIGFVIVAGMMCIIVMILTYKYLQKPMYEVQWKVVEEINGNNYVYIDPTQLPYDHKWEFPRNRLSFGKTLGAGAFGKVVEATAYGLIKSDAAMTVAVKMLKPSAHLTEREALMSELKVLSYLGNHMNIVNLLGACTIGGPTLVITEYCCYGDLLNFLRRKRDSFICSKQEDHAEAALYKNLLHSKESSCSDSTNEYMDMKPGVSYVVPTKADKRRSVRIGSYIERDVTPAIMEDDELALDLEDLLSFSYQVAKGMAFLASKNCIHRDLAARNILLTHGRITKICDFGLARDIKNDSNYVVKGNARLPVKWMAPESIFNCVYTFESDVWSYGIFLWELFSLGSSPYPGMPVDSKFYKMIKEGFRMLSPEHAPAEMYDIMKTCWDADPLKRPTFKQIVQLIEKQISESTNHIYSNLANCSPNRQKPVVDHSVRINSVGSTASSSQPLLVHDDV

| IC50 (FLT3-ITD) | IC50 (FLT3-D835Y) | IC50 (c-Kit) | Compound |
| --- | --- | --- | --- |
| 0.0001 to 1 µM | 0.0001 to 1 µM | 1 to 10 µM | CS(=O)(=O)Nc1cccc(-c2cnc3[nH]cc(-c4ccc5c(c4)NCCO5)c3n2)c1 [P-085, N-[3-[7-(3,4-dihydro-2H-1,4-benzoxazin-6-yl)-5H-pyrrolo[2,3-b]pyrazin-2-yl]phenyl]methanesulfonamide] |
| 1 to 10 µM | 1 to 10 µM | 10 to 200 µM | Fc1cnc2[nH]cc(-c3ccc4nc[nH]c4c3)c2c1 [P-022, 3-(3H-benzimidazol-5-yl)-5-fluoro-1H-pyrrolo[2,3-b]pyridine] |
| 0.0001 to 1 µM | 0.0001 to 1 µM | 1 to 10 µM | COc1cnc2[nH]cc(-c3ccc4[nH]cnc4c3)c2c1 [P-002, 3-(1H-benzimidazol-5-yl)-5-methoxy-1H-pyrrolo[2,3-b]pyridine] |
| 0.0001 to 1 µM | 0.0001 to 1 µM | 1 to 10 µM | COc1ccc(-c2cnc3[nH]cc(-c4ccc5ncn(C)c5c4)c3c2)cn1 [P-040, 5-(6-methoxy-3-pyridyl)-3-(3-methylbenzimidazol-5-yl)-1H-pyrrolo[2,3-b]pyridine] |
| 0.0001 to 1 µM | 0.0001 to 1 µM | 0.0001 to 1 µM | Cn1cnc2ccc(-c3c[nH]c4ncc(-c5ccc(S(=O)(=O)N6CCCC6)cc5)cc34)cc21 [P-091, 1-methyl-6-[5-(4-pyrrolidin-1-ylsulfonylphenyl)-1H-pyrrolo[2,3-b]pyridin-3-yl]benzimidazole] |
| 0.0001 to 1 µM | 0.0001 to 1 µM | 10 to 200 µM | CC(C)N1CCOc2ccc(-c3c[nH]c4ncc(-c5cccc(NS(C)(=O)=O)c5)nc34)cc21 [P-086, N-[3-[7-(4-isopropyl-2,3-dihydro-1,4-benzoxazin-6-yl)-5H-pyrrolo[2,3-b]pyrazin-2-yl]phenyl]methanesulfonamide] |
| 0.0001 to 1 µM | 0.0001 to 1 µM | 1 to 10 µM | CC(=O)Nc1cccc(-c2cnc3[nH]cc(-c4ccc5ncn(C)c5c4)c3c2)c1 [P-116, N-[3-[3-(3-methylbenzimidazol-5-yl)-1H-pyrrolo[2,3-b]pyridin-5-yl]phenyl]acetamide] |
| 0.0001 to 1 µM | 1 to 10 µM | 1 to 10 µM | O=S(=O)(C1CC1)N1CC=C(c2cnc3[nH]cc(-c4ccc5[nH]cnc5c4)c3c2)CC1 [P-031, 3-(1H-benzimidazol-5-yl)-5-(1-cyclopropylsulfonyl-3,6-dihydro-2H-pyridin-4-yl)-1H-pyrrolo[2,3-b]pyridine] |
| 0.0001 to 1 µM | 0.0001 to 1 µM | 10 to 200 µM | CS(=O)(=O)Nc1cccc(-c2cnc3[nH]cc(-c4ccc5c(c4)OCCO5)c3n2)c1 [P-059, N-[3-[7-(2,3-dihydro-1,4-benzodioxin-6-yl)-5H-pyrrolo[2,3-b]pyrazin-2-yl]phenyl]methanesulfonamide] |
| 0.0001 to 1 µM | 0.0001 to 1 µM | 10 to 200 µM | Cn1cnc2ccc(-c3c[nH]c4ncc(-c5cccc(OC(F)(F)F)c5)cc34)cc21 [P-131, 1-methyl-6-[5-[3-(trifluoromethoxy)phenyl]-1H-pyrrolo[2,3-b]pyridin-3-yl]benzimidazole] |
| 0.0001 to 1 µM | 0.0001 to 1 µM | 1 to 10 µM | c1cnc2[nH]cc(-c3ccc4ncsc4c3)c2c1 [P-030, 6-(1H-pyrrolo[2,3-b]pyridin-3-yl)-1,3-benzothiazole] |
| 0.0001 to 1 µM | 0.0001 to 1 µM | 1 to 10 µM | COc1cnc2[nH]cc(-c3cnc4[nH]cnc4c3)c2c1 [P-052, 6-(5-methoxy-1H-pyrrolo[2,3-b]pyridin-3-yl)-3H-imidazo[4,5-b]pyridine] |
| 0.0001 to 1 µM | 0.0001 to 1 µM | 1 to 10 µM | COc1cnc2[nH]cc(-c3ccc4[nH]nc(C)c4c3)c2c1 [P-083, 5-methoxy-3-(3-methyl-1H-indazol-5-yl)-1H-pyrrolo[2,3-b]pyridine] |
| 0.0001 to 1 µM | 0.0001 to 1 µM | 1 to 10 µM | CC(C)(C)n1cnc2ccc(-c3c[nH]c4ncc(-c5cnc(C(N)=O)c(Cl)c5)nc34)cc21 [P-364, 5-[7-(3-tert-butylbenzimidazol-5-yl)-5H-pyrrolo[2,3-b]pyrazin-2-yl]-3-chloro-pyridine-2-carboxamide] |
| 0.0001 to 1 µM | 0.0001 to 1 µM | 1 to 10 µM | Cn1cc(-c2ccc(-c3cnc4[nH]cc(-c5ccc6ncn(C(C)(C)C)c6c5)c4n3)cc2)cn1 [P-306, 7-(3-tert-butylbenzimidazol-5-yl)-2-[4-(1-methylpyrazol-4-yl)phenyl]-5H-pyrrolo[2,3-b]pyrazine] |
| 0.0001 to 1 µM | 0.0001 to 1 µM | 10 to 200 µM | COc1cc(-c2cnc3[nH]cc(-c4ccc5ncn(C)c5c4)c3c2)cc(OC)n1 [P-123, 5-(2,6-dimethoxy-4-pyridyl)-3-(3-methylbenzimidazol-5-yl)-1H-pyrrolo[2,3-b]pyridine] |
| 0.0001 to 1 µM | 0.0001 to 1 µM | 1 to 10 µM | COc1ccc(-c2cnc3[nH]cc(-c4ccc5[nH]cnc5c4)c3c2)cn1 [P-024, 3-(1H-benzimidazol-5-yl)-5-(6-methoxy-3-pyridyl)-1H-pyrrolo[2,3-b]pyridine] |
| 0.0001 to 1 µM | 0.0001 to 1 µM | 10 to 200 µM | COc1cnc2[nH]cc(-c3ccc4scnc4c3)c2c1 [P-051, 5-(5-methoxy-1H-pyrrolo[2,3-b]pyridin-3-yl)-1,3-benzothiazole] |
| 0.0001 to 1 µM | 0.0001 to 1 µM | 10 to 200 µM | CNS(=O)(=O)c1cccc(-c2cnc3[nH]cc(-c4ccc5ncn(C)c5c4)c3c2)c1 [P-046, N-methyl-3-[3-(3-methylbenzimidazol-5-yl)-1H-pyrrolo[2,3-b]pyridin-5-yl]benzenesulfonamide] |
| 0.0001 to 1 µM | 0.0001 to 1 µM | 10 to 200 µM | Cn1cnc2ccc(-c3c[nH]c4ncc(Cl)cc34)cc21 [P-019, 5-chloro-3-(3-methylbenzimidazol-5-yl)-1H-pyrrolo[2,3-b]pyridine] |
| 0.0001 to 1 µM | 0.0001 to 1 µM | 1 to 10 µM | CS(=O)(=O)Nc1cccc(-c2cnc3[nH]cc(-c4ccc5ncsc5c4)c3n2)c1 [P-054, N-[3-[7-(1,3-benzothiazol-6-yl)-5H-pyrrolo[2,3-b]pyrazin-2-yl]phenyl]methanesulfonamide] |
| 0.0001 to 1 µM | 0.0001 to 1 µM | 10 to 200 µM | CS(=O)(=O)Nc1cccc(-c2cnc3[nH]cc(-c4ccc5c(c4)N(CC4CC4)CCO5)c3n2)c1 [P-081, N-[3-[7-[4-(cyclopropylmethyl)-2,3-dihydro-1,4-benzoxazin-6-yl]-5H-pyrrolo[2,3-b]pyrazin-2-yl]phenyl]methanesulfonamide] |
| 0.0001 to 1 µM | 0.0001 to 1 µM | 1 to 10 µM | COc1cc(-c2cnc3[nH]cc(-c4ccc5ncn(C)c5c4)c3c2)ccn1 [P-042, 5-(2-methoxy-4-pyridyl)-3-(3-methylbenzimidazol-5-yl)-1H-pyrrolo[2,3-b]pyridine] |

Reference: patent US10160755B2 (Plexxikon Inc., priority 2015, dated 2018)
